Source: patent US12502410B2, “Preservation of pancreatic islet grafts in the extrahepatic space” (The Regents of the University of California, priority 2017, dated 2025)

Legend:
[1] = test system: eBC; experiment: eBC viability in nutrient deprived and/or hypoxic culture, PI staining and flow cytometry; format: cell-based, human; settings: 24 hours; for beta cell survival: nutrient deprived and/or hypoxic; for preservation of insulin-producing cells after stress: nutrient deprived or hypoxic
Protocol: (§1) SCIPC cultured for 24 hours in nutrient deprived and/or hypoxic conditions with or without GABA, PTH, and PTHrP At the end of the experiment, islet viability was measured using PI staining followed by flow cytometry. FIG. 11B depicts the effect of GABA, PTH and PTHrP on preserving insulin-producing cells after stress. FIG. 11C depicts quantification of viability of eBC cultured for 24 hours in nutrient deprived or hypoxic conditions with or without GABA, PTH, and PTHrP. […] Quantification of viability of cBC cultured for 24 hours in nutrient deprived and/or hypoxic conditions with or without leptin or serotonin. Islet viability measured using PI staining followed by flow cytometry.
(§2) In order to understand whether cell survival is due to secreted pro-survival or pro-angiogenic molecules, known PTG-released molecules were added to SCIPC and eBC cultures in vitro. While PTH is the main PTG-secreted hormone, previous publications also show GABA production within the PTG. GABA and PTH improve beta cell survival in nutrient deprived and/or hypoxic environment in vitro (FIG. 11A).

[2] = test system: SCIPC; experiment: SCIPC viability in nutrient deprived and/or hypoxic culture, PI staining and flow cytometry; format: cell-based, human; settings: for preservation of insulin-producing cells after stress: SCIPC; for beta cell / SCIPC survival: nutrient deprived and/or hypoxic environment, 24 hours
Protocol: as §1, §2

[3] = test system: human islets; experiment: Amino acid supplementation, viability of high density culture (PI staining); format: cell-based; settings: 1000 islets/mL, RPMI+5% serum
Description: (§3) FIG. 15A, FIG. 15B, and FIG. 15C depict the effect of nutrient supplementation on islet cell death in vitro. The effects of cell survival by supplementation of amino acids on mouse islets (FIG. 15A), human islets (FIG. 15B), and SCIPC (FIG. 15C) cultured in low or high density conditions (mouse=1000 islets/mL, human=1000 islets/mL, SCIPC=3000 clusters/mL) in RPMI+5% serum with addition of glucose. GLN: glutamine, TRP: tryptophan. Cell viability is quantified using PI staining via flow cytometry. Data shown are a summary of 3 independent experiments.
(§4) Various insulin-producing cells cultured in low (nutrient replete; mouse=200 islets/mL, human=200 islets/mL, SCIPC=200 clusters/mL) or high density conditions (nutrient limiting; mouse=1000 islets/mL, human=1000 islets/mL, SCIPC=3000 clusters/mL) in RPMI+5% serum with addition of glucose.

[4] = test system: mouse islets; experiment: as above; format: cell-based; settings: 1000 islets/mL, RPMI+5% serum
Description: as §3, §4

[5] = test system: SCIPC; experiment: as above; format: cell-based, human; settings: 3000 clusters/mL, RPMI+5% serum
Description: as §3, §4

Molecule	preservation of insulin-producing cells after stress [2]	beta cell / SCIPC survival [2]	preservation of insulin-producing cells after stress [1]	further results
leptin	–	–	–	beta cell survival [1]: preserves beta cell survival
parathyroid hormone-related protein [PTHrP]	preferentially preserve	preserve SCIPC survival	preferentially preserve	–
N[C@@H](Cc1c[nH]c2ccccc12)C(=O)O [tryptophan]	–	–	–	viability under nutrient-limiting condition [3]: preserved viability; viability under nutrient-limiting condition [4]: preserved viability; viability under nutrient-limiting condition [5]: preserved viability
NC(=O)CC[C@H](N)C(=O)O [glutamine]	–	–	–	viability under nutrient-limiting condition [3]: preserved viability; viability under nutrient-limiting condition [4]: preserved viability; viability under nutrient-limiting condition [5]: preserved viability
NCCCC(=O)O [GABA]	preferentially preserve	improve	preferentially preserve	–
NCCc1c[nH]c2ccc(O)cc12 [serotonin]	–	–	–	beta cell survival [1]: preserves beta cell survival
parathyroid hormone (protein, UniProt P01270 32-115, looked up, Parathyroid hormone, main PTG-secreted hormone added to cultures) Parathyroid hormone: SVSEIQLMHNLGKHLNSMERVEWLRKKLQDVHNFVALGAPLAPRDAGSQRPRKKEDNVLVESHEKSLGEADKADVNVLTKAKSQ	preferentially preserve	improve	preferentially preserve	–
